Measured values: patent publication US6309882A, “Antisense inhibition of replication protein a p70 subunit” (ISIS Pharmaceuticals, Inc., priority 1999, dated 2001)

How the values were obtained:
[1] = system: A549 cells; experiment: Tumor cell survival, cell number by hemocytometer; format: cell-based, human; conditions: A549, 400 nM, 72 hours
Protocol: (§1) To determine the effects of ISIS 12790 on tumor cell survival, T24, A549, Mia Paca II, and SW480 cells were treated with either ISIS 12790 or ISIS 13706 (a 20-mer with identical nucleotide composition but containing 7 mismatches relative to the target) and surviving cells counted 72 hours later.
(§2) For experiments where cell number was measured directly by hemocytometer, cells were plated in six well dishes 24 hr prior to the experiment and transfected at approximately 50-70% confluency with various phosphorothioate oligonucleotides at 400 nM, as described above. Following a single transfection, the cells were allowed to recover 72 hours. After 72 hr the cells were washed, trypsinized, and cell number was determined by hemocytometer. For each experiment, treatments were performed in triplicate wells. The number of cells corresponding to each well was determined twice.
(§3) Statistical analysis of mRNA levels and cell survival data were performed using BMDP Statistical package, Version 7.0 (BMDP Statistical Software, Inc., Los Angeles, Calif.). Data were subjected to ANOVA and the results were expressed in terms of F-values, t-values, and significance. For cell survival data, analyses included repeated measurements with 3 between factors (drug, concentration, and position). For mRNA levels only the 3 between factors were considered. Global comparisons were performed with F-tests and pairwise comparisons with t-tests. In each case, since there was no interaction with position, results were pooled and analyzed with two between factors (drug and concentration). Treatment with ISIS 12790 was associated with decreased cell number in all four tumor cell lines (see Table 4). The decrease in cell number observed in T24 cells was 79%. The decrease observed in the other three cell lines was: A549, 98% decrease; Mia Paca II, 85% decrease; SW480, 81% decrease.

[2] = system: Mia Paca II cells; experiment: Tumor cell survival, cell number by hemocytometer; format: cell-based, human; conditions: 400 nM, 72 hours
Protocol: as §1, §2, §3

[3] = system: SW480 cells; experiment: Tumor cell survival, cell number by hemocytometer; format: cell-based, human; conditions: SW480, 400 nM, 72 hours
Protocol: as §1, §2, §3

[4] = system: T24 cells; experiment: Tumor cell survival, cell number by hemocytometer; format: cell-based, human; conditions: T24, 400 nM, 72 hours
Protocol: as §1, §2, §3

[5] = system: HeLa cells; experiment: HeLa cell survival, Sulforhodamine B staining; format: cell-based, human; conditions: for % Cell Killing / % Cell Survival: SRB, three days
From the text: (§4) Cells were transfected with matched, mismatched, or non-allele specific anti-RPA70 (ISIS 12790) oligonucleotides as described above. Following transfection, the cells were allowed to recover either three days (HeLa cells) or 6 days (Mia Paca II cells). The number of cells remaining attached to the tissue culture dish was quantified by Sulforhodamine B (SRB) staining (FluoReporter Colorimetric Cell Protein Assay Kit, Molecular probes).
To determine the effect of variance-specific antisense oligonucleotides on cell survival, cells were treated with oligonucleotides and cell survival measured by Sulforhodamine B staining. […] At the maximum concentration of ISIS 12781, 400 nM, there was an 84% reduction of surviving cells. […] After treatment with 400 nM oligonucleotide, the amount of cells remaining with VAR 13085 was 3.1-fold higher than with ISIS 12781. […] The IC50 for the decrease was less than 100 nM. The IC50s for inhibition of HeLa cell survival correlated with the IC50s for RPA70 mRNA suppression by both ISIS 12781 and ISIS 12790 oligonucleotides.

[6] = system: Mia Paca II cells; experiment: Mia Paca II cell survival, Sulforhodamine B staining; format: cell-based, human; conditions: for % Cell Killing / % Cell Survival: Mia Paca II, SRB, 6 days
Protocol: as §4
However, at 400 nM, there was a statistically significant difference in survival with less survival seen in cells treated with the matched oligonucleotide,VAR 13085, than the mismatched oligonucleotide, ISIS 12781 (p=0.02). At 400 nM, there was a 4.6 fold difference in cell survival between matched and mismatched oligonucleotides. […] The IC50 for inhibition of Mia Paca II cell survival was similar to that for suppression of RPA70 mRNA for both VAR 13085 and ISIS 12790. The effect of antisense treatment on cell survival for both cell lines appears to be cytotoxic rather than cytostatic as the absolute number of cells decreases for both cell lines when treated with matched antisense oligonucleotides.

[7] = system: Mia Paca II tumors; experiment: Mia Paca II tumors in NMRI nu/nu mice; format: in vivo
Protocol: Delivery of oligonucleotide was continuous for 14 days. The dosage of oligonucleotide was 10 mg/kg/day. Each sample set contained three mice. Tumor volume was measured regularly and after two weeks, the tumors were taken out and weighed.

## ISIS 12790: phosphorothioate oligodeoxynucleotide TGGTCTGCAGTTAGGGTCAG, SEQ ID NO 15, 3'-UTR 2230-2249, non-allele specific (DNA, all phosphorothioate, methylation of C not given here)
[1]
  % Cell Killing: 98%
  % Cell Survival: 2%
  decrease in cell number: 98%
[2]
  decrease in cell number: 85%
[3]
  % Cell Killing: 81%
  % Cell Survival: 19%
  decrease in cell number: 81%
[4]
  % Cell Killing: 79%
  % Cell Survival: 21%
  decrease in cell number: 79%
[5]; HeLa cells
  effect on cell survival: dose-dependent reduction in the number of surviving cells
[5]; HeLa cells, read-out: IC50 for decrease in cell survival
  IC50: < 100 nM
[5]; HeLa, 50 nM
  % Cell Killing: 77%
  % Cell Survival: 23%
[5]; HeLa, 100 nM
  % Cell Killing: 66%
  % Cell Survival: 34%
[5]; HeLa, 200 nM
  % Cell Killing: 89%
  % Cell Survival: 11%
[5]; HeLa, 400 nM
  reduction of surviving cells: 90%
  % Cell Killing: 89%
  % Cell Survival: 11%
[6]; Mia Paca II cells
  effect on cell survival: dose-dependent decrease in the number of surviving cells
[6]; Mia Paca II cells, read-out: IC50 for decrease in cell survival
  IC50: < 100 nM
[6]; 50 nM
  % Cell Killing: 39%
  % Cell Survival: 61%
[6]; 100 nM
  % Cell Killing: 86%
  % Cell Survival: 14%
[6]; 200 nM
  % Cell Killing: 94%
  % Cell Survival: 6%
[6]; 400 nM
  % Cell Killing: 88%
  % Cell Survival: 12%
[7]; 10 mg/kg/day for 14 days
  effect on tumor progression: delayed tumor progression over the two week period compared to a saline control
[7]; after two weeks, 10 mg/kg/day, saline control 297 mg
  average final weight of the tumors: 161 mg
[7]; day 0, 10 mg/kg/day osmotic minipump
  Tumor volume: 134 mm^3
[7]; day 1, 10 mg/kg/day osmotic minipump
  Tumor volume: 186 mm^3
[7]; day 2, 10 mg/kg/day osmotic minipump
  Tumor volume: 220 mm^3
[7]; day 6, 10 mg/kg/day osmotic minipump
  Tumor volume: 252 mm^3
[7]; day 7, 10 mg/kg/day osmotic minipump
  Tumor volume: 290 mm^3
[7]; day 9, 10 mg/kg/day osmotic minipump
  Tumor volume: 370 mm^3
[7]; day 13, 10 mg/kg/day osmotic minipump
  Tumor volume: 358 mm^3
[7]; day 14, 10 mg/kg/day osmotic minipump
  Tumor volume: 331 mm^3
[7]; two week period, compared to saline control
  inhibition of tumor growth: approximately 40%
